Results published in paper PMC7587962, “Evaluation of Cytotoxicity and α-Glucosidase Inhibitory Activity of Amide and Polyamino-Derivatives of Lupane Triterpenoids” (Molecules, 2020).

Experiments:
Yeast α-Glucosidase = assay: Yeast α-glucosidase activity assay; type: biochemical, S. cerevisiae; details: pH 6.8, 37 °C, p-nitrophenyl-α-D-glucopyranoside 1 mM; read-out: Yeast α-Glucosidase, IC50 ± SE
Method: Taken together, these considerations prompted us to evaluate a series of lupanes with amide function or polyamine chain 11, 12, 16, 18, and 22–26 for α-glucosidase inhibition. Initially, they were screened against α-glucosidase of S. cerevisiae as an accessible and high-throughput model. Confirmatory experiments were performed on isolated rough endoplasmic reticulum vesicles from rat liver, which contain neutral α-glucosidases I and II in a membrane-bound form.
In a 96-well flat transparent plate, the 0.12 U/mL enzyme solution (EC 3.2.1.20, expressed in S. cerevisiae, Sigma #G0660, St. Louis, MO, USA) was incubated with test compounds in 67 mM PBS (pH 6.8) at 37 °C for 5 min. Then, p-nitrophenyl-α-D-glucopyranoside (Sigma #N1377, St. Louis, MO, USA) was added to 1 mM final concentration and an increase in absorbance was recorded for 15 min at 405 nm wavelength with Infinite M200 PRO microplate reader (Tecan, Austria). Test compounds were dissolved in DMSO and diluted to the desired concentration in 67 mM PBS (pH 6.8) supplemented with 0.01% Tween 80 to avoid aggregation. Final DMSO concentration was <0.25% in sample wells, and it was also introduced in control and blank wells. […] Due to the absence of normal distribution of data, a Mann–Whitney U-test was used to determine statistical significance versus enzyme control using GraphPad Prism 8.0.1.

CCRF-CEM = system: CCRF-CEM; design: method as in PMID 25405285; details: standard drugs used by NCI as control; cited from earlier work
MOLT-4 = system: MOLT-4; design: method as in PMID 25405285; details: standard drugs used by NCI as control; cited from earlier work
SR = system: SR; design: method as in PMID 25405285; details: standard drugs used by NCI as control; cited from earlier work
EKVX = system: EKVX; design: method as in PMID 25405285; details: standard drugs used by NCI as control; cited from earlier work
NCI-H226 = system: NCI-H226; design: method as in PMID 25405285; details: standard drugs used by NCI as control; cited from earlier work
NCI-H23 = system: NCI-H23; design: method as in PMID 25405285; details: standard drugs used by NCI as control; cited from earlier work
NCI-H522 = system: NCI-H522; design: method as in PMID 25405285; details: standard drugs used by NCI as control; cited from earlier work
COLO 205 = system: COLO 205; design: method as in PMID 25405285; details: standard drugs used by NCI as control; cited from earlier work
HCT-15 = system: HCT-15; design: method as in PMID 25405285; details: standard drugs used by NCI as control; cited from earlier work
HT29 = system: HT29; design: method as in PMID 25405285; details: standard drugs used by NCI as control; cited from earlier work
KM12 = system: KM12; design: method as in PMID 25405285; details: standard drugs used by NCI as control; cited from earlier work
SW-620 = system: SW-620; design: method as in PMID 25405285; details: standard drugs used by NCI as control; cited from earlier work
SF-268 = system: SF-268; design: method as in PMID 25405285; details: standard drugs used by NCI as control; cited from earlier work
SF-295 = system: SF-295; design: method as in PMID 25405285; details: standard drugs used by NCI as control; cited from earlier work
SF-539 = system: SF-539; design: method as in PMID 25405285; details: standard drugs used by NCI as control; cited from earlier work
SNB-75 = system: SNB-75; design: method as in PMID 25405285; details: standard drugs used by NCI as control; cited from earlier work
LOX IMVI = system: LOX IMVI; design: method as in PMID 25405285; details: standard drugs used by NCI as control; cited from earlier work
MALME-3M = system: MALME-3M; design: method as in PMID 25405285; details: standard drugs used by NCI as control; cited from earlier work
SK-MEL-28 = system: SK-MEL-28; design: method as in PMID 25405285; details: standard drugs used by NCI as control; cited from earlier work
UACC-257 = system: UACC-257; design: method as in PMID 25405285; details: standard drugs used by NCI as control; cited from earlier work
UACC-62 = system: UACC-62; design: method as in PMID 25405285; details: standard drugs used by NCI as control; cited from earlier work
OVCAR-3 = system: OVCAR-3; design: method as in PMID 25405285; details: standard drugs used by NCI as control; cited from earlier work
OVCAR-4 = system: OVCAR-4; design: method as in PMID 25405285; details: standard drugs used by NCI as control; cited from earlier work
OVCAR-8 = system: OVCAR-8; design: method as in PMID 25405285; details: standard drugs used by NCI as control; cited from earlier work
NCI/ADR-RES = system: NCI/ADR-RES; design: method as in PMID 25405285; details: standard drugs used by NCI as control; cited from earlier work
SK-OV-3 = system: SK-OV-3; design: method as in PMID 25405285; details: standard drugs used by NCI as control; cited from earlier work
ACHN = system: ACHN; design: method as in PMID 25405285; details: standard drugs used by NCI as control; cited from earlier work
CAKI-1 = system: CAKI-1; design: method as in PMID 25405285; details: standard drugs used by NCI as control; cited from earlier work
RXF 393 = system: RXF 393; design: method as in PMID 25405285; details: standard drugs used by NCI as control; cited from earlier work
SN12C = system: SN12C; design: method as in PMID 25405285; details: standard drugs used by NCI as control; cited from earlier work
MCF7 = system: MCF7; design: method as in PMID 25405285; details: standard drugs used by NCI as control; cited from earlier work
HS 578T = system: HS 578T; design: method as in PMID 25405285; details: standard drugs used by NCI as control; cited from earlier work
BT-549 = system: BT-549; design: method as in PMID 25405285; details: standard drugs used by NCI as control; cited from earlier work
T-47D = system: T-47D; design: method as in PMID 25405285; details: standard drugs used by NCI as control; cited from earlier work

C=C(C)[C@@H]1CC[C@]2(C(=O)NCCNCCNCCN)CC[C@]3(C)[C@H](CC[C@@H]4[C@@]5(C)CCC(=O)C(C)(C)[C@@H]5CC[C@]43C)[C@@H]12 [Compound 11]
IC50 (Yeast α-Glucosidase): 4.84 ± 1.02 µM

COc1cccc2c1C(=O)c1c(O)c3c(c(O)c1C2=O)C[C@@](O)(C(=O)CO)C[C@@H]3O[C@H]1C[C@H](N)[C@H](O)[C@H](C)O1 [DRB, doxorubicin]
GI50 (CCRF-CEM): 80 nM | GI50 (MOLT-4): 30 nM | GI50 (SR): 30 nM | GI50 (EKVX): 410 nM | GI50 (NCI-H226): 50 nM | GI50 (NCI-H23): 150 nM | GI50 (NCI-H522): 30 nM | GI50 (COLO 205): 180 nM | GI50 (HCT-15): 6.46 µM | GI50 (HT29): 120 nM | GI50 (KM12): 270 nM | GI50 (SW-620): 90 nM | GI50 (SF-268): 100 nM | GI50 (SF-295): 100 nM | GI50 (SF-539): 120 nM | GI50 (SNB-75): 70 nM | GI50 (LOX IMVI): 70 nM | GI50 (MALME-3M): 120 nM | GI50 (SK-MEL-28): 210 nM | GI50 (UACC-257): 140 nM | GI50 (UACC-62): 120 nM | GI50 (OVCAR-3): 390 nM | GI50 (OVCAR-4): 370 nM | GI50 (OVCAR-8): 100 nM | GI50 (NCI/ADR-RES): 7.16 µM | GI50 (SK-OV-3): 220 nM | GI50 (ACHN): 80 nM | GI50 (CAKI-1): 950 nM | GI50 (RXF 393): 100 nM | GI50 (SN12C): 70 nM | GI50 (MCF7): 30 nM | GI50 (HS 578T): 330 nM | GI50 (BT-549): 230 nM | GI50 (T-47D): 60 nM
